Experiments:
[1] = system: cell mass derived from the cancer tissue (surgical specimens of human colon cancer, Example 2); experiment: Drug sensitivity test with 5-FU on cancer tissue-derived cell masses embedded in collagen gel; type: cell-based; conditions: 5-FU 0.01, 0.1, 1, 10 and 100 μg/ml; day 8 after culture vs day 0; FIG. 4
Experimental: Using 5-FU which is known to inhibit DNA synthesis by binding to a thymidylic acid synthetase involved in the metabolism process necessary for DNA synthesis, a drug sensitivity test on a sample of Example 2 was carried out. The test was carried out by embedding the cell masses (×10 each) derived from the cancer tissue in a collagen gel (CellMatrix type IA (Nitta Gelatin Inc.):5×DMEM (Gibco; 12100-038):buffer solution for gel reconstruction (50 mM NaOH, 260 mM NaHCO3, 200 mM HEPES)=7:2:1), and culturing in 1 cc of STEMPRO serum-free medium (Gibco) for human ES cells in an incubator under the culture conditions of 37° C. and 5% CO2. In addition, 5-FU was applied at a concentration of 0.01 μg/ml, 0.1 μg/ml, 1 μg/ml, 10 μg/ml, and 100 μg/ml, and the states of the cells on days 0 and 8 after culture were compared for evaluation. An increasing rate of the area of the cell mass derived from the cancer tissue was expressed relative to 1 of an increasing rate of the area of the cell mass in the culture without application of a drug.

[2] = system: aggregated cancer cell mass; experiment: Drug sensitivity test with doxorubicin on aggregated cancer cell masses embedded in collagen gel; type: cell-based; conditions: doxorubicin 0.1, 1 and 10 μM; day 8 after culture initiation vs day 0; FIG. 14
Experimental: Using doxorubicin that is known to exert an antitumor effect by suppressing the biosynthesis of both DNA and RNA as a result of inhibiting the reaction of DNA polymerase, RNA polymerase, and topoisomerase II due to the insertion of doxorubicin between the base pairs of DNA of tumor cells, a drug sensitivity test was carried out by the sample of Example 12. The test was carried out by embedding the aggregated cancer cell mass (×10 each) in collagen gel (CellMatrix type IA (Nitta Gelatin):5×DMEM (Gibco; 12100-038):buffer solution for gel reconstruction (50 mM NaOH, 260 mM NaHCO3, 200 mM HEPES)=7:2:1) and carrying out culture in 1 cc of a STEMPRO human ES cell serum-free medium (Gibco) under the culture conditions of a temperature of 37° C. in 5% CO2 incubator. In addition, doxorubicin was applied at a concentration of 0.1 μM, 1 μM, and 10 μM, and the states on day 0 and on day […] were compared for evaluation. An increasing rate of the area of the aggregated cancer cell mass was relatively expressed when an increasing rate of the area of the cell mass in the culture without application of a drug was determined to be 1.

Row | Structure (SMILES) | proliferation of the cancer cell (increasing rate of the area of the cell mass relative to 1 without drug) [1] | proliferation of the cancer cell (increasing rate of the area of the aggregated cancer cell mass relative to 1 without drug) [2]
1 | O=c1[nH]cc(F)c(=O)[nH]1 [5-FU] | concentration-dependently suppressed | –
2 | COc1cccc2c1C(=O)c1c(O)c3c(c(O)c1C2=O)C[C@@](O)(C(=O)CO)C[C@@H]3O[C@H]1C[C@H](N)[C@H](O)[C@H](C)O1 [doxorubicin] | – | concentration-dependently suppressed

— patent US20130012404A1, “CULTURE METHOD, EVALUATION METHOD AND STORAGE METHOD FOR CANCER-TISSUE-DERIVED CELL MASS OR AGGREGATED CANCER CELL MASS” (Osaka Prefectural Hospital Organization, priority 2010, published 2013)
